Experimental data taken from ChEMBL document CHEMBL1201862, “PubChem BioAssay data set” (2004).
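These data come from cells grown in 96-well plates and exposed to compound for 48 hours at five concentrations. The concentration for 50% growth inhibition is given as GI50.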 The source made the active and inactive calls. Cut-off read from the data, not from the text of the source: active = GI50 up to about 1.1 µM and inactive = higher.

How the values were obtained:
Experiment in all cases: inhibition of tumour cell growth, NCI panel, 48 h
[1] = test system: SNB-75
[2] = test system: MDA-MB-435
[3] = test system: CCRF-CEM
[4] = test system: SK-MEL-5
[5] = test system: Malme-3M
[6] = test system: Hs-578T
[7] = test system: UACC-62
[8] = test system: MCF7
[9] = test system: MOLT-4
[10] = test system: SNB-19
[11] = test system: NCI-H226
[12] = test system: NCI-H23
[13] = test system: 786-0
[14] = test system: OVCAR-5
[15] = test system: CAKI-1
[16] = test system: UO-31
[17] = test system: SF-268
[18] = test system: EKVX
[19] = test system: SK-OV-3

Measured: GI50

C=C(c1ccccc1)c1ccccc1-c1cc(-c2ccccc2)cc(-c2ccccc2)n1
inactive: [1] > 100 µM | [2] 82.2 µM | [3] 84.9 µM | [4] 78.3 µM | [5] > 100 µM | [6] > 100 µM | [7] 74.6 µM | [8] > 100 µM | [9] > 100 µM | [10] > 100 µM | [11] > 100 µM | [12] > 100 µM | [13] > 100 µM | [14] > 100 µM | [15] > 100 µM | [16] > 100 µM | [17] > 100 µM | [18] > 100 µM

CC1=CC(=O)CC(C)(C)C1/C=C/C(C)=C/C=C/C(C)=C/C=C/C=C(C)/C=C/C=C(C)/C=C/C1C(C)=CC(=O)CC1(C)C (centres undefined)
inactive: [2] 23.4 µM | [3] 21.6 µM | [4] 45.8 µM | [19] > 100 µM | [6] 30.8 µM | [8] 29.2 µM | [9] 50.1 µM | [11] > 100 µM | [12] 36.3 µM | [13] 34.4 µM | [14] 78.5 µM | [15] 58.7 µM | [16] 67.5 µM | [17] 44.4 µM | [18] 92.9 µM

O=C1NC(=O)C23C(=O)NC(=O)C12C1C=CC3CC1 (centres undefined)
inactive: [1] > 10 µM | [2] > 10 µM | [3] > 10 µM | [4] > 10 µM | [19] > 10 µM | [5] > 10 µM | [6] > 10 µM | [7] > 10 µM | [8] > 10 µM | [9] > 10 µM | [10] > 10 µM | [11] > 10 µM | [12] > 10 µM | [13] > 10 µM | [15] > 10 µM | [16] > 10 µM | [17] > 10 µM | [18] > 10 µM

Cn1c(=O)c2c(nc3n(CC(O)CCl)c(=O)ccn23)n(C)c1=O (centres undefined)
inactive: [1] 29.1 µM | [2] 47.8 µM | [3] 5.19 µM | [4] 62.5 µM | [19] 45.1 µM | [6] 41.4 µM | [7] 36.5 µM | [8] 40.4 µM | [9] 6.17 µM | [10] 60 µM | [11] 22.6 µM | [12] 42.7 µM | [13] 26.4 µM | [14] > 100 µM | [15] 17 µM | [16] 37.5 µM | [17] 20.5 µM | [18] 42.9 µM

C=CCC1(O)c2cccc(O)c2C(=O)c2c(O)cccc21
inactive: [1] 21.1 µM | [2] 9.51 µM | [4] 29.4 µM | [6] 24.4 µM | [8] 30.1 µM | [9] 29.3 µM | [11] 45.7 µM | [12] 24.7 µM | [13] 35.8 µM | [14] 35.2 µM | [15] 31.2 µM | [16] 27.8 µM | [17] 32.7 µM | [18] 27.5 µM

CCOC(=O)C1C(c2ccc3c(c2)OCO3)c2c(n[nH]c2O)CC1(C)O (centres undefined)
inactive: [1] > 100 µM | [2] > 100 µM | [3] > 100 µM | [4] > 100 µM | [5] 56.1 µM | [6] > 100 µM | [7] > 100 µM | [8] > 100 µM | [9] > 100 µM | [10] > 100 µM | [12] > 100 µM | [13] > 100 µM | [14] > 100 µM | [15] > 100 µM | [16] > 100 µM | [17] > 100 µM | [18] > 100 µM

Cc1c(Br)c(Br)c(C)[s+]1[O-]
inactive: [2] 9.16 µM | [3] 1.92 µM | [4] 10.4 µM | [19] 23.8 µM | [5] 17.3 µM | [6] 28.5 µM | [7] 20.4 µM | [8] 25 µM | [9] 3.48 µM | [10] 20.7 µM | [11] 28.4 µM | [12] 25.3 µM | [13] 16.9 µM | [14] 18 µM | [15] 13.7 µM | [16] 13.6 µM | [17] 25.2 µM | [18] 15.1 µM

O=C1NC(NNc2ccccc2)=N/C1=C\c1ccco1
inactive: [1] 24.7 µM | [2] 12.4 µM | [3] 4.61 µM | [4] 25.5 µM | [19] > 100 µM | [5] 28.1 µM | [6] 26.2 µM | [7] 4.29 µM | [8] 15.5 µM | [9] 30.1 µM | [10] 43.5 µM | [12] 18.8 µM | [13] 17.4 µM | [14] 37.7 µM | [15] 14.3 µM | [16] 27.8 µM | [17] 22.4 µM | [18] 18.7 µM

CC(=N\N=C\c1ccccn1)/C(C)=N/N=C(C)/C(C)=N/N=C/c1ccccn1
inactive: [1] > 100 µM | [2] > 100 µM | [3] > 100 µM | [4] > 100 µM | [19] > 100 µM | [5] > 100 µM | [6] > 100 µM | [8] > 100 µM | [10] > 100 µM | [11] > 100 µM | [12] > 100 µM | [13] > 100 µM | [14] > 100 µM | [15] > 100 µM | [16] > 100 µM | [17] > 100 µM | [18] > 100 µM

CC1(C)N=C2C(=O)c3c([nH]c4ccccc34)[C@]3(C)CCC1CC23 (some centres undefined)
inactive: [1] > 6.25 µM | [2] > 6.25 µM | [3] > 6.25 µM | [4] > 6.25 µM | [5] > 6.25 µM | [6] > 6.25 µM | [8] > 6.25 µM | [9] > 6.25 µM | [11] > 6.25 µM | [12] > 6.25 µM | [13] > 6.25 µM | [14] > 6.25 µM | [15] > 6.25 µM | [16] > 6.25 µM | [17] > 6.25 µM | [18] > 6.25 µM

C/C=C/C/C=C/CCC(=O)C1OC1C(N)=O (centres undefined)
inactive: [1] 14.3 µM | [2] 14.1 µM | [3] 11.4 µM | [4] 15 µM | [19] 35.1 µM | [5] 17.8 µM | [6] 22.8 µM | [7] 15.9 µM | [8] 14.5 µM | [9] 13.2 µM | [10] 18.2 µM | [12] 14.9 µM | [13] 13.1 µM | [14] 18.8 µM | [15] 16.3 µM | [16] 11.8 µM | [17] 12.5 µM | [18] 18.9 µM

C/C(CC(O)(/C=N/O)c1ccccc1)=N/O (centres undefined)
inactive: [2] > 100 µM | [3] > 100 µM | [4] > 100 µM | [19] > 100 µM | [5] > 100 µM | [6] > 100 µM | [8] > 100 µM | [9] > 100 µM | [10] > 100 µM | [11] > 100 µM | [12] > 100 µM | [13] > 100 µM | [14] > 100 µM | [15] > 100 µM | [16] > 100 µM | [17] > 100 µM | [18] > 100 µM
